Data reported in patent US20140011700A1 (Bristol-Myers Squibb Company, published 2014).

How the values were obtained:
Format in all cases: cell-based, Influenza A
[1] = tested on: A/WSN/33 Y52H
[2] = tested on: A/WSN/33 Y289H
[3] = tested on: A/WSN/33 N309T
[4] = tested on: A/WSN/33 N309K

| SMILES | EC50 [1] [µM] | EC50 [2] [µM] | EC50 [3] [µM] | EC50 [4] [µM] |
| --- | --- | --- | --- | --- |
| Cc1cc(Br)cnc1N1CCN(C(=O)c2c(-c3ccccc3Cl)noc2C)CC1 [Compound D] | > 20 | > 20 | > 20 | > 20 |
| COc1ccccc1-c1noc(C)c1C(=O)N1CCN(c2ccc([N+](=O)[O-])cc2Cl)CC1 [Compound B] | 8.15 | > 20 | 3.5 | > 20 |
